Reference: US12110294B2, “CD73 compounds” (Gilead Sciences, Inc., priority 2020, dated 2024)
Read-outs that look alike come from different tables or passages of the source.

Experiments:
[1] = biological target: T1, CD73 activity in MDA-MB-231-GFP cells (Homo sapiens, UniProt P21589); experiment: MDA-MB-231 Cell Based CD73 Activity Assay; conditions: 10000 cells per well, RPMI medium with 10% human plasma, overnight compound treatment, AMP 200 μM
T1 construct: endogenous in cells; host or cells: MDA-MB-231-GFP cells
T1 sequence (P21589 27-549): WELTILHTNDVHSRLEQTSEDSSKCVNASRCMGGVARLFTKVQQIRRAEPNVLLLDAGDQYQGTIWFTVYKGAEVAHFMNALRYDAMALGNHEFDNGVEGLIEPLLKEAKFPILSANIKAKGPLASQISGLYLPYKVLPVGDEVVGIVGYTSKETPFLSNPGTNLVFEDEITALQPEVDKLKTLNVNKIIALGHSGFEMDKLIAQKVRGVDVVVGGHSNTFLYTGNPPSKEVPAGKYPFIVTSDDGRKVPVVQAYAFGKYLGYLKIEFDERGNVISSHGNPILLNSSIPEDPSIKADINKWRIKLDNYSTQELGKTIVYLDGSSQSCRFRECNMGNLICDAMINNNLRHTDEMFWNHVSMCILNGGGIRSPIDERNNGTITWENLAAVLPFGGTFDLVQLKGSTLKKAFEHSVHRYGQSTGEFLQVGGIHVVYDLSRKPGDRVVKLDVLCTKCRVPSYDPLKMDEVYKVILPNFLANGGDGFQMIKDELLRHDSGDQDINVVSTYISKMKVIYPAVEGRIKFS
Protocol: MDA-MB-231 Cell Based CD73 Activity Assay
MDA-MB-231-GFP cells were seeded in 384-well plates (Greiner 781946) at a density of 10000 cells per well in 50 μL of RPMI medium with 10% HP (human plasma). Cells were plated into assay plate with compounds pre-spotted, for an overnight compound treatment. 50 μL of 400 μM AMP (final concentration 200 μM) using a Bio-tek dispenser. Plates were incubated for 100 mins. […] The samples were run using Rapid fire.

CD73 [2] = biological target: T2, CD73 (Homo sapiens, UniProt P21589); experiment: CD73 Biochemical IC50 Assay; conditions: final AMP 15 uM, final CD73 0.3 nM, 25 mM Tris pH 7.4, 5 mM MgCl2, no phosphate
T2 construct: purchased R&D system
T2 sequence (P21589 27-549): T1 sequence (P21589 27-549)
Protocol: CD73 Biochemical IC50 Assay
Compound serial dilutions were pre-spotted into Thermo Nunc assay plate. 50 μL CD73 enzyme buffer (CD73 purchased from R&D system=0.6 nM, 25 mM Tris, pH 7.4, 5 mM MgCl2) was added into the assay plate and incubated for 15 mins. […] The samples were run using Rapid fire.

CD73 [3] = biological target: T2, CD73; type: biochemical; conditions: 1 mM NaH2PO4 in enzyme buffer, final AMP 15 uM, final CD73 0.3 nM

O=c1[nH]cc(-c2cc([C@@H]3C[C@H]3c3ccccc3F)c3nccn3n2)c(=O)[nH]1 (racemic) [Example 28, 5-(8-((1S,2S)-2-(2-fluorophenyl)cyclopropyl)imidazo[1,2-b]pyridazin-6-yl)pyrimidine-2,4(1H,3H)-dione and 5-(8-((1R,2R)-2-(2-fluorophenyl)cyclopropyl)imidazo[1,2-b]pyridazin-6-yl)pyrimidine-2,4(1H,3H)-dione]
EC50 [1]: 3.59 nM
IC50 (CD73 [2]): 16.8 nM

O=c1[nH]cc(-c2cc([C@H]3C[C@@H]3c3cccc(F)c3)c3nccn3n2)c(=O)[nH]1 (racemic) [Example 29, 5-(8-((1S,2S)-2-(3-fluorophenyl)cyclopropyl)imidazo[1,2-b]pyridazin-6-yl)pyrimidine-2,4(1H,3H)-dione and 5-(8-((1R,2R)-2-(3-fluorophenyl)cyclopropyl)imidazo[1,2-b]pyridazin-6-yl)pyrimidine-2,4(1H,3H)-dione]
EC50 [1]: 7.08 nM
IC50 (CD73 [2]): 16.3 nM

O=c1[nH]cc(-c2cc([C@@H]3C[C@H]3c3cccc(F)c3F)c3nccn3n2)c(=O)[nH]1 (racemic) [Example 32, 5-(8-((1S,2S)-2-(2,3-difluorophenyl)cyclopropyl)imidazo[1,2-b]pyridazin-6-yl)pyrimidine-2,4(1H,3H)-dione and 5-(8-((1R,2R)-2-(2,3-difluorophenyl)cyclopropyl)imidazo[1,2-b]pyridazin-6-yl)pyrimidine-2,4(1H,3H)-dione]
EC50 [1]: 6.84 nM
IC50 (CD73 [2]): 18.6 nM

O=c1[nH]cc(-c2cc([C@@H]3C[C@H]3c3ccc(F)c(F)c3F)c3nccn3n2)c(=O)[nH]1 (racemic) [Example 34, 5-(8-((1S,2S)-2-(2,3,4-trifluorophenyl)cyclopropyl)imidazo[1,2-b]pyridazin-6-yl)pyrimidine-2,4(1H,3H)-dione and 5-(8-((1R,2R)-2-(2,3,4-trifluorophenyl)cyclopropyl)imidazo[1,2-b]pyridazin-6-yl)pyrimidine-2,4(1H,3H)-dione]
EC50 [1]: 11.3 nM
IC50 (CD73 [2]): 18.2 nM

O=c1[nH]cc(-c2cc([C@@H]3C[C@H]3c3cc(F)c(F)c(F)c3)c3nccn3n2)c(=O)[nH]1 (racemic) [Example 36, 5-(8-((1S,2S)-2-(3,4,5-trifluorophenyl)cyclopropyl)imidazo[1,2-b]pyridazin-6-yl)pyrimidine-2,4(1H,3H)-dione and 5-(8-((1R,2R)-2-(3,4,5-trifluorophenyl)cyclopropyl)imidazo[1,2-b]pyridazin-6-yl)pyrimidine-2,4(1H,3H)-dione]
EC50 [1]: 6.51 nM
IC50 (CD73 [2]): 24.2 nM

O=c1[nH]cc(-c2cc([C@@H]3C[C@H]3c3cccc(Cl)c3)c3nccn3n2)c(=O)[nH]1 (racemic) [Example 38, 5-(8-((1S,2S)-2-(3-chlorophenyl)cyclopropyl)imidazo[1,2-b]pyridazin-6-yl)pyrimidine-2,4(1H,3H)-dione and 5-(8-((1R,2R)-2-(3-chlorophenyl)cyclopropyl)imidazo[1,2-b]pyridazin-6-yl)pyrimidine-2,4(1H,3H)-dione]
EC50 [1]: 7.29 nM
IC50 (CD73 [2]): 14.3 nM

O=c1[nH]cc(-c2cc([C@@H]3C[C@H]3c3ccc(OC(F)(F)F)cc3)c3nccn3n2)c(=O)[nH]1 (racemic) [Example 48, 5-(8-((2S,2S)-2-(4-(trifluoromethoxy)phenyl)cyclopropyl)imidazo[1,2-b]pyridazin-6-yl)pyrimidine-2,4(1H,3H)-dione and 5-(8-((1R,2R)-2-(4-(trifluoromethoxy)phenyl)cyclopropyl)imidazo[1,2-b]pyridazin-6-yl)pyrimidine-2,4(1H,3H)-dione]
IC50 (CD73 [3]): 2.73 nM
IC50 (CD73 [2]): 52.5 nM

N#Cc1cc([C@@H]2C[C@H]2c2cc(-c3c[nH]c(=O)[nH]c3=O)nn3ccnc23)ccc1F (racemic) [Example 64, 5-((2S,2S)-2-(6-(2,4-dioxo-1,2,3,4-tetrahydropyrimidin-5-yl)imidazo[1,2-b]pyridazin-8-yl)cyclopropyl)-2-fluorobenzonitrile and 54(1R,2R)-2-(6-(2,4-dioxo-1,2,3,4-tetrahydropyrimidin-5-yl)imidazo[1,2-b]pyridazin-8-yl)cyclopropyl)-2-fluorobenzonitrile]
IC50 (CD73 [3]): 1.5 nM
IC50 (CD73 [2]): 14.7 nM

O=c1[nH]cc(-c2cc([C@H]3C[C@@H]3c3ccccc3)c3ncc(F)n3n2)c(=O)[nH]1 (racemic) [Example 87, 5-[3-fluoro-8-[(1S,2S)-2-phenylcyclopropyl]imidazo[1,2-b]pyridazin-6-yl]-1H-pyrimidine-2,4-dione and 5-[3-fluoro-8-[(1R,2R)-2-phenylcyclopropyl]imidazo[1,2-b]pyridazin-6-yl]-1H-pyrimidine-2,4-dione]
EC50 [1]: 3.24 nM
IC50 (CD73 [2]): 15.7 nM

O=c1[nH]cc(-c2cc([C@H]3C[C@@H]3c3ccccc3)c3nccn3n2)c(=O)[nH]1 (racemic) [Example 104, 5-(8-((2S,2S)-2-phenylcyclopropyl)imidazo[1,2-b]pyridazin-6-yl)pyrimidine-2,4-(1H,3H)-dione and 5-(8-((1R,2R)-2-phenylcyclopropyl)imidazo[1,2-b]pyridazin-6-yl)pyrimidine-2,4-(1H,3H)-dione]
EC50 [1]: 23.2 nM
IC50 (CD73 [2]): 196 nM

O=c1[nH]cc(-c2cc([C@@H]3C[C@H]3C(F)(F)F)c3nccn3n2)c(=O)[nH]1 (racemic) [Example 107, 5-(8-((2S,2S)-2-(trifluoromethyl)cyclopropyl)imidazo[1,2-b]pyridazin-6-yl)pyrimidine-2,4(1H,3H)-dione and 5-(8-((1R,2R)-2-(trifluoromethyl)cyclopropyl)imidazo[1,2-b]pyridazin-6-yl)pyrimidine-2,4(1H,3H)-dione]
IC50 (CD73 [2]): 46.8 nM

O=c1[nH]cc(-c2cc([C@@H]3C[C@@]3(F)c3ccccc3)c3nccn3n2)c(=O)[nH]1 (racemic) [Example 108, 5-(8-((1R,2R)-2-fluoro-2-phenylcyclopropyl)imidazo[1,2-b]pyridazin-6-yl)pyrimidine-2,4(1H,3H)-dione and 5-(8-((1S,2S)-2-fluoro-2-phenylcyclopropyl)imidazo[1,2-b]pyridazin-6-yl)pyrimidine-2,4(1H,3H)-dione]
IC50 (CD73 [2]): 35 nM

N#Cc1ccccc1[C@H]1C[C@@H]1c1cc(-c2c[nH]c(=O)[nH]c2=O)nn2ccnc12 [Example 49, 2-((1S,2S)-2-(6-(2,4-dioxo-1,2,3,4-tetrahydropyrimidin-5-yl)imidazo[1,2-b]pyridazin-8-yl)cyclopropyl)benzonitrile]
EC50 [1]: 19 nM
IC50 (CD73 [2]): 17.5 nM

O=c1[nH]cc(-c2cc(N3C[C@@H](F)[C@@H](F)C3)c3nccn3n2)c(=O)[nH]1 [Example 77, 5-[8-[(3S,4R)-3,4-difluoropyrrolidin-1-yl]imidazo[1,2-b]pyridazin-6-yl]-1H-pyrimidine-2,4-dione and 5-[8-[(3R,4S)-3,4-difluoropyrrolidin-1-yl]imidazo[1,2-b]pyridazin-6-yl]-1H-pyrimidine-2,4-dione]
IC50 (CD73 [3]): 3.5 nM
IC50 (CD73 [2]): 22.6 nM

COc1ccc([C@H]2C[C@@H]2c2cc(-c3c[nH]c(=O)[nH]c3=O)nn3ccnc23)cc1 [Example 112, 5-(8-((1S,2S)-2-(4-methoxyphenyl)cyclopropyl)imidazo[1,2-b]pyridazin-6-yl)pyrimidine-2,4(1H,3H)-dione]
EC50 [1]: 2.23 nM
IC50 (CD73 [2]): 20.5 nM

COC(=O)c1ccccc1[C@H]1C[C@@H]1c1cc(-c2c[nH]c(=O)[nH]c2=O)nn2ccnc12 [Example 113, methyl 2-((1S,2S)-2-(6-(2,4-dioxo-1,2,3,4-tetrahydropyrimidin-5-yl)imidazo[1,2-b]pyridazin-8-yl)cyclopropyl)benzoate]
EC50 [1]: 210 nM
IC50 (CD73 [2]): 147 nM

COc1cccc([C@H]2C[C@@H]2c2cc(-c3c[nH]c(=O)[nH]c3=O)nn3ccnc23)c1 [Example 114, 5-(8-((1S,2S)-2-(3-methoxyphenyl)cyclopropyl)imidazo[1,2-b]pyridazin-6-yl)pyrimidine-2,4(1H,3H)-dione]
EC50 [1]: 5.38 nM
IC50 (CD73 [2]): 31.1 nM

O=c1[nH]cc(-c2cc(N3CCC[C@H]3c3ccc(F)cc3)c3nccn3n2)c(=O)[nH]1 [Example 116, (S)-5-(8-(2-(4-fluorophenyl)pyrrolidin-1-yl)imidazo[1,2-b]pyridazin-6-yl)pyrimidine-2,4(1H,3H)-dione]
EC50 [1]: 718 nM
IC50 (CD73 [2]): > 2500 nM
